Like-named read-outs stand apart in the source and are kept apart here.
Experiments:
LmajNT1 [1] = experiment: [3H]-thymidine uptake by L. major promastigotes; type: cell-based, Leishmania major
Procedure: (§1) Using the standard uptake technique as described for T. brucei and Leishmania species ([Wallace et al., 2002], [Al-Salabi and De Koning, 2005], [Gudin et al., 2006]), the dose- or time-dependent uptake of radiolabeled permeants was investigated.
(§2) Briefly, cells in the mid-to-late logarithmic stage of growth were harvested by centrifugation for 10 min at 1500×g. The cells were washed twice with transport assay buffer (AB: 33 mM HEPES, 98 mM NaCl, 4.6 mM KCl, 0.55 mM CaCl2, 0.07 mM MgSO4, 5.8 mM NaH2PO4, 0.3 mM MgCl2, 23 mM NaHCO3, 14 mM glucose, pH 7.3), resuspended at a density of 10^8 cells ml^−1 in AB, and left for 20–30 min at room temperature to recover from centrifugation stress. One hundred microliters of cell suspension was incubated at ambient temperature for a predetermined time with 100 μl radiolabeled test compound, in the presence or absence of unlabeled substrate or other competitive inhibitors. The incubation was terminated by the addition of ice-cold stop solution (AB containing saturating levels, usually 10 mM, of unlabeled permeant) and centrifugation through oil for 1 min at 13,000 × g. […] Radioactivity was determined by liquid scintillation counting in a Beckman LS6000 TA scintillation counter. Saturation data, inhibition data, and time courses were plotted to equations for linear or non-linear regression (hyperbolic or sigmoid curves), as appropriate. All experiments were performed in triplicate and on at least three independent occasions.
Subsequent experiments were performed with a 5 min incubation time.

[2] = tested on: L. mexicana promastigotes WT; experiment: Alamar blue drug sensitivity assay, L. mexicana WT; type: cell-based, Leishmania mexicana; conditions: for activity against L. mexicana promastigotes: at concentrations up to 5 mM
Procedure: (§3) Sensitivity assays of Leishmania strains to various drugs using the viability dye resazurin (Alamar Blue) (Sigma-Aldrich) were performed using a protocol adapted from [Räz et al. (1997)], as described ([Al-Salabi et al., 2003], [Gould et al., 2008]). Pentamidine and diminazene were used as non-nucleoside controls and were obtained from Sigma-Aldrich, as were many purines, pyrimidines, and analogs, with the exceptions of 2-thiouridine and 4-thiouridine (TriLink BioTechnologies, San Diego, CA); 5′-deoxyuridine, and 2′-3′-dideoxyuridine (Carbosynth, Compton, UK); 5-fluoro-2′-deoxyuridine (Fluka); and 2-thiouracil (ICN Biomedicals, Cambridge, UK). A preliminary promastigote culture was diluted to a density of 2 × 10^6 cells/ml, of which 100 μl was added to wells of 96-well plates pre-loaded with 100 μl of doubling dilutions of test compounds, resulting in a final density of 1 × 10^6 cells/ml; the dilutions were over 2 rows of the plate (23 concentrations), with the last well containing only medium and serving as the no-drug control. The plates were incubated at 25 °C for 72 h before adding the Alamar Blue dye (20 μl of 12.5 mg resazurin sodium salt (Sigma) in 100 ml phosphate buffered saline (PBS; pH 7.4)). Since Leishmania parasites metabolize the Alamar Blue dye slower than trypanosomes ([Gould et al., 2008]), the cells were incubated with the dye for a further period of 48 h before measuring the fluorescence, using a FLUOstar Optima fluorimeter (BMG Labtech) at wavelengths of 544 nm for excitation and 620 nm for emission. […] Each experiment was performed independently at least 4 times; statistical significance was determined using Student's unpaired t-test.

Lmex5F2′dURes = experiment: microbe, parasite or virus in culture; type: cell-based, Leishmania mexicana
Procedure: as §3

Lmex5FURes = experiment: microbe, parasite or virus in culture; type: cell-based, Leishmania mexicana
Procedure: as §3

[3] = tested on: L. major promastigotes WT; experiment: Alamar blue drug sensitivity assay, L. major WT; type: cell-based, Leishmania major
Procedure: as §3

Lmaj5F2′dURes = experiment: microbe, parasite or virus in culture; type: cell-based, Leishmania major
Procedure: as §3

Lmaj5FURes = experiment: microbe, parasite or virus in culture; type: cell-based, Leishmania major
Procedure: as §3

L. major promastigotes = experiment: metabolomic analysis of treated L. major promastigotes; type: cell-based, Leishmania major; conditions: 100 μM, 8 h
Procedure: (§4) Metabolomics analysis of the Leishmania promastigotes was undertaken in triplicate, exactly as described ([Ali et al., 2013a]). Briefly, cells were grown to log phase stage, resuspended at 2 × 10^6 cells/ml in 50 ml HOMEM/FBS and incubated 8 h with 100 μM of test compound (standard conditions) before transfer to a 50-ml centrifuge tube for instantaneous cooling (dry ice/ethanol bath, 4 °C) and centrifugation (2500 rpm, 10 min, 4 °C). The pellet was lysed with 200 μl of chloroform/methanol/water (1:3:1 v/v/v) containing mass spectrometry standards, and vigorous mixing (1 h, 4 °C); cell debris was removed by centrifugation and the metabolite extracts were stored in HPLC vials at −80 °C. Control samples were prepared in parallel and included untreated cells, unused growth medium, test compound solution and extraction solvent blanks. The analysis used a hydrophilic interaction liquid chromatography (HILIC-LC) fitted with a zwitterionic ZIC-pHILIC column (Merck Sequant), coupled to high resolution mass spectrometry (MS) using a Thermo Q-Exactive, and metabolomic data outputs were analyzed using the IDEOM application (http://mzmatch.sourceforge.net/ideom.php) with default parameters ([Creek et al., 2012]) exactly as described ([Ali et al., 2013a]). The lower limit of detection was set to 500 intensity units for all reported metabolites, in order to prevent spurious identification of low level signals.
(§5) The mechanism of action of the fluorinated pyrimidines was investigated using a metabolomics approach, where promastigotes of L. mexicana and L. major were incubated for 8 h with 100 μM of either 5-FU, 5F-2′dUrd or 5F-Urd prior to metabolite extraction and mass spectrometric analysis as described ([Ali et al., 2013a], [Alkhaldi et al., 2015]). These conditions were chosen to allow for significant metabolite accumulation while not affecting cell viability or growth rate, which could broadly affect metabolite levels.

[4] = tested on: L. mexicana promastigotes; experiment: metabolomic analysis of treated L. mexicana promastigotes; type: cell-based, Leishmania mexicana; conditions: 100 μM, 8 h
Procedure: as §4, §5

LmexNT1 [5] = type: cell-based, Leishmania mexicana; conditions: for rate of uptake: 1 μM [3H]-thymidine
Procedure: as §1, §2
L. donovani is known to express one pyrimidine nucleoside transporter, LdNT1, which also transports adenosine ([Vasudevan et al., 1998], [De Koning et al., 2005]). In order to investigate whether this model held true for L. mexicana, the uptake of [^3H]-thymidine was studied. […] Care was taken throughout this study that whenever inhibition constants (Ki) or Michaelis-Menten constants (Km) were determined the conditions used had been verified to be well within the linear range of uptake.

LmexNT1 [6] = experiment: [3H]-adenosine uptake by L. mexicana promastigotes; type: cell-based, Leishmania mexicana; conditions: inhibition of 0.05 μM [3H]-adenosine uptake; read-out: Ki
Excerpt: Using the standard uptake technique as described for T. brucei and Leishmania species ([Wallace et al., 2002], [Al-Salabi and De Koning, 2005], [Gudin et al., 2006]), the dose- or time-dependent uptake of radiolabeled permeants was investigated. The following radiolabels and specific activities were used: [^3H]-thymidine (Perkin Elmer; 56.6 Ci/mmol); [^3H]-adenosine (American Radiolabeled Chemicals UK; 40 Ci/mmol); [^3H]-uridine (American Radiolabeled Chemicals UK; 30 Ci/mmol); [^3H]-uracil (Perkin Elmer; 24.8 Ci/mmol); [^3H]-inosine (American Radiolabeled Chemicals UK; 20 Ci/mmol); [^3H]-5-fluorouracil (Moravek; 20 Ci/mmol).
as §2
We next investigated the transport of [^3H]-adenosine in L. mexicana promastigotes, which according to the efficient inhibition of [^3H]-thymidine by adenosine, should be taken up with high affinity.

LmexNT1 [7] = type: cell-based, Leishmania mexicana; conditions: inhibition of 0.25 μM [3H]-uridine uptake in the presence of 1 mM uracil
Procedure: as §1, §2

LmajUUT1 = experiment: [3H]-uridine uptake by L. major promastigotes, high-affinity uracil-sensitive component; type: cell-based, Leishmania major; conditions: inhibition of 0.25 μM [3H]-uridine uptake
Procedure: as §1, §2

LmajNT1 [8] = experiment: [3H]-uridine uptake by L. major promastigotes, low-affinity component; type: cell-based, Leishmania major; conditions: inhibition of 0.25 μM [3H]-uridine uptake
Procedure: as §1, §2

[9] = n = 3, SEM, untreated: not detected (<500)

O=c1[nH]c(=O)n([C@@H]2O[C@H](CO)[C@@H](O)[C@H]2O)cc1F [5F-Urd, 5-Fluorouridine]
Ki (LmajNT1 [1]; inhibition of 0.25 μM [3H]-thymidine uptake (total LmajNT1.1 + LmajNT1.2), 5 min): 23.4 ± 1.3 µM
EC50 ([2]; Leishmania mexicana, 72 h, WT promastigotes, 72 h + 48 h with dye, n ≥ 4, read-out: EC50): > 5000 µM
activity against L. mexicana promastigotes [2]: insensitive
activity against L. mexicana promastigotes ([2]; listed as 5-fluorouridine): no activity
EC50 (Lmex5F2′dURes; Leishmania mexicana): > 5000 µM
RF (Resistance Factor = IC50 (resistant clone)/IC50 (WT)) (Lmex5F2′dURes; Lmex5F2′dURes vs L. mexicana WT): 1
EC50 (Lmex5FURes; Leishmania mexicana): > 5000 µM
RF (Resistance Factor = IC50 (resistant clone)/IC50 (WT)) (Lmex5FURes; Lmex5FURes vs L. mexicana WT): 1
concentrations that killed promastigotes [3]: below 20 μM
EC50 ([3]; Leishmania major, WT promastigotes, 72 h + 48 h with dye, n ≥ 4, read-out: EC50): 18 ± 1.6 µM
EC50 (Lmaj5F2′dURes; Leishmania major): 1230 ± 340 µM
RF (Resistance Factor = IC50 (resistant clone)/IC50 (WT)) (Lmaj5F2′dURes; Lmaj5F2′dURes vs L. major WT): 68
EC50 (Lmaj5FURes; Leishmania major): 110 ± 17 µM
RF (Resistance Factor = IC50 (resistant clone)/IC50 (WT)) (Lmaj5FURes; Lmaj5FURes vs L. major WT): 6.1
dCMP peak intensity (L. major promastigotes; [9]): 6744 ± 3500 arbitrary units
dUrd peak intensity (L. major promastigotes; untreated: 712 ± 105): 8145 ± 1684^∗ arbitrary units
dCTP peak intensity (L. major promastigotes; untreated: 995 ± 109): 5477 ± 1350^∗ arbitrary units
dAdo peak intensity (L. major promastigotes; untreated: 2992 ± 173): 11818 ± 839^∗∗ arbitrary units
dAMP peak intensity (L. major promastigotes; untreated: 6192 ± 910): 18001 ± 2307^∗ arbitrary units
dADP peak intensity (L. major promastigotes; untreated: not detected): 6482 ± 3260 arbitrary units
dCDP peak intensity (L. major promastigotes; untreated: not detected): 6904 ± 384^∗∗ arbitrary units
dCMP peak intensity [4, 9]: 12757 ± 1038^∗∗ arbitrary units
dUrd peak intensity ([4]; untreated: 304 ± 155): 6439 ± 456^∗ arbitrary units
dADP peak intensity ([4]; untreated: 1458): 9404 ± 1389^∗ arbitrary units
dAdo peak intensity ([4]; untreated: 2585 ± 811): 8045 ± 4537 arbitrary units
dAMP peak intensity ([4]; untreated: 10660 ± 2897): 21978 ± 1784^∗∗ arbitrary units
dCDP peak intensity ([4]; untreated: not detected): 10404 ± 1470^∗ arbitrary units
dCTP peak intensity ([4]; untreated: not detected): 2338 ± 428^∗ arbitrary units

Cc1cn([C@H]2C[C@H](O)[C@@H](CO)O2)c(=O)[nH]c1=O [thymidine]
rate of uptake (LmexNT1 [5]; linear over 30 s (Fig. 1A)): 0.082 ± 0.005 pmol(10^7 cells)^−1s^−1
rate of uptake (LmexNT1 [5]; over 2 min (Fig. 1B)): 0.051 ± 0.002 pmol(10^7 cells)^−1s^−1
Vmax (LmexNT1 [5]; [3H]-thymidine): 1.53 ± 0.28 pmol(10^7 cells)^−1s^−1
Km (LmexNT1 [5]; [3H]-thymidine, n = 3): 11.2 ± 2.4 µM
Ki (LmexNT1 [6]): 16.5 ± 0.4 µM
Ki (LmexNT1 [7]): 9.98 ± 2.67 µM
Ki (LmajUUT1): 60.9 ± 8.4 µM
Ki (LmajNT1 [8]): 60.9 ± 8.4 µM
Vmax (1) (LmajNT1 [1]; [3H]-thymidine, high affinity component): 0.023 ± 0.003 pmol(10^7 cells)^−1s^−1
Km (LmajNT1 [1]; [3H]-thymidine, high affinity component, Lineweaver-Burke plot, n = 5, read-out: Km (1)): 4.2 ± 1.09 µM
Vmax (2) (LmajNT1 [1]; [3H]-thymidine, lower affinity component): 0.14 ± 0.03 pmol(10^7 cells)^−1s^−1
Km (LmajNT1 [1]; n = 5, read-out: average Km from Michaelis-Menten saturation plots (single-component fit)): 30.7 ± 2.1 µM
Km (LmajNT1 [1]; single experiment shown in Fig. 5C, read-out: apparent Km, higher affinity component): 1.26 µM
Km (LmajNT1 [1]; single experiment shown in Fig. 5C, read-out: apparent Km, lower affinity component): 17.1 µM

— article PMC5407577, “Functional and genetic evidence that nucleoside transport is highly conserved in Leishmania species: Implications for pyrimidine-based chemotherapy” (International Journal for Parasitology: Drugs and Drug …, 2017)
